Experimental data published in patent US20230219912A1, “HALOGENATED BENZOTHIADIAZINES FOR THE TREATMENT OF CANCER” (BOARD OF REGENTS OF THE UNIVERSITY OF NEBRASKA, priority 2020, published 2023).
pIC50: −log10 of the molar value. “And” between values parts separate entries of the source, which are not always exact repeats. Equal values may be shown once.

Key:
[1] = target: T1, Mitochondrial respiratory complex II (Rattus norvegicus, UniProt P21913+Q641Z9+Q6PCT8+Q920L2); assay: Mitochondrial respiratory complex II inhibition assay; format: biochemical
T1 construct: measured spectrophotometrically using isolated rat heart mitochondria; from tissue; host or cells: rat heart mitochondria / sub-mitochondrial particles
T1 sequence (Q920L2 35-656): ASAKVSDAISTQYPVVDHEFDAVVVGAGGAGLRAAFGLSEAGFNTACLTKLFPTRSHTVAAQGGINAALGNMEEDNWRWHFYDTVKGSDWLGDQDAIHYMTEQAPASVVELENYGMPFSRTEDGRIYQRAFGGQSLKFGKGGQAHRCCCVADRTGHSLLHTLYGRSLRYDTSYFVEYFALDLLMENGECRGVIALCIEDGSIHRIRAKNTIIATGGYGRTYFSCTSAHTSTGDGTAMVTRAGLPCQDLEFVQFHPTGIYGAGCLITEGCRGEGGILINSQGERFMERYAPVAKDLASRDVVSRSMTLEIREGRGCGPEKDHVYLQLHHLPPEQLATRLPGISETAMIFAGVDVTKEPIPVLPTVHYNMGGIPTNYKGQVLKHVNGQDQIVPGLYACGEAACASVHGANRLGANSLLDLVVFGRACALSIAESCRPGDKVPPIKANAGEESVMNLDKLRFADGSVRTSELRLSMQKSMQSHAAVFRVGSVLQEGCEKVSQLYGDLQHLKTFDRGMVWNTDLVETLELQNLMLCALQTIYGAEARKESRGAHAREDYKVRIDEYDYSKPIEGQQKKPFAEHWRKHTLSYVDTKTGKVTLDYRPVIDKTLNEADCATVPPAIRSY
T1 sequence (P21913 31-282): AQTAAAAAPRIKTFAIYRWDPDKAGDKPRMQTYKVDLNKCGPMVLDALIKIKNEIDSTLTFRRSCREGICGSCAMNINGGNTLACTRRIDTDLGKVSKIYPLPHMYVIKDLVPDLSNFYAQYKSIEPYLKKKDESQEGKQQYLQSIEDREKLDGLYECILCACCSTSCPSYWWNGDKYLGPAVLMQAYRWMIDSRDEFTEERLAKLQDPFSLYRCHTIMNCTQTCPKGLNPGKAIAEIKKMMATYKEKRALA
T1 sequence (Q641Z9 1-169): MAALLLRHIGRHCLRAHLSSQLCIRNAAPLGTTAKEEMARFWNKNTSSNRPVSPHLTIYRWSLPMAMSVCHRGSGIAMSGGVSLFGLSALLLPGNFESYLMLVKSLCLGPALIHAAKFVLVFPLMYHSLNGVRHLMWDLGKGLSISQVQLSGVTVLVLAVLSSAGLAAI
T1 sequence (Q6PCT8 57-159): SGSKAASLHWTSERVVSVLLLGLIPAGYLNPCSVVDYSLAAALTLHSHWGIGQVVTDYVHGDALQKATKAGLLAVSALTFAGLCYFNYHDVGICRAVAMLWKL
How it was run: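 Rat heart mitochondria or sub-mitochondrial particles in phosphate buffer pH 7.4 with 40 μM DCPIP, 1 mM KCN, 10 μM rotenone and 50 μM co-enzyme Q2.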

[2] = test system: phosphorylated vascular endothelial growth factor receptor-2 (VEGFR2); assay: Western blot of pVEGFR2 in VEGF-treated HUVEC cells; format: cell-based, human; conditions: 20 μM, VEGF 10 ng/mL, 5 min
Protocol: Cells were treated with test compounds (20 μM) along with VEGF (10 ng/mL) for 5 min. The DMSO was used as a negative control, whereas DMSO+VEGF was used as a positive control. Cells were lysed using RIPA buffer (10 mmol/L Tris-HCl, 1 mmol/L EDTA, 0.5 mmol/L EGTA, 1% Triton X-100, 0.1% sodium deoxycholate, 0.1% SDS and 140 mmol/L NaCl), supplemented with protease and phosphatase inhibitors (Halt Protease and Phosphatase Inhibitor). Cell lysates were centrifuged, and the supernatants were mixed with appropriate amount of 5×SDS loading buffer. Proteins were resolved on polyacrylamide gel and transferred onto nitrocellulose/PVDF membrane, blocked for 1 hour with 10% milk block prepared in 0.1% Tween 20 in 1×PBS (PBST), and treated with pVEGFR2 primary antibody at 4° C. overnight. The membrane was washed thrice with PBST, 5 minutes each, and treated with secondary antibody for 1 hour. The membrane was further washed three times, 5 minutes each, with PBST and developed using chemiluminescence, and the bands were analyzed using densitometry.

DYRK1A = DYRK1A (Homo sapiens, UniProt Q13627); conditions: 100 μM; cited from earlier work
MDA-MB-468 TNBC cells = conditions: cited from earlier work

- inhibition of CII ([1]; 100 μM, relative to DMSO control): no CII inhibition activity
- inhibition at 100 µM ([1]; 100 μM, relative to DMSO control, read-out: inhibition of CII): 9%
- pIC50 ([1]; isolated rat heart mitochondria, mean ±SD of n = 4, read-out: CII IC50): 2.91 and < 3.00
SMILES: CC1=Nc2ccc(Cl)cc2S(=O)(=O)N1 [Diazoxide, 7-chloro-3-methyl-2H-1,2,4-benzothiadiazine 1,1-dioxide, reference compound]
- attenuation of pVEGFR2 expression [2]: good activity to suppress pVEGFR2
- inhibition of DYRK1A (DYRK1A): 7%
- pIC50 (MDA-MB-468 TNBC cells): 6.06
